Here are results for five compounds from article PMC8197120, “Synthesis and Characterization of Some New Quinoxalin-2(1H)one and 2-Methyl-3H-quinazolin-4-one Derivatives Targeting the Onset and Progression of CRC with SAR, Molecular Docking, and ADMET Analyses” (Molecules, 2021).

≈ marks a conversion by molar mass, not a printed value. Where two headings read alike, the source gives them in different places.

In data set [1] the test system is Enterococcus faecalis (ATCC 29122). Description: Antibacterial activity, CFU viability. In kind it is cell-based. To be noted: ATCC29122, mean of two determinations, read-out: Mean IC50 ± SD. On the procedure:
(§1) Pure standard microbial isolates collected from King Khaled University Hospital were tested in this study, including Enterococcus faecalis (ATCC 29122) as Gram positive bacteria and Escherichia coli (ATCC 25922) and Bacteroides fragilis (ATCC 25285) as Gram negative bacteria. Fresh cultures of each microorganism were grown on nutrient agar plates (Oxoid, UK), of which small inoculums were suspended in 5 mL nutrient broth for bacterial suspension preparation of 0.5MacFarland. Bacterial viability was investigated by estimating the colony-forming unit (CFU) ability of the bacteria incubated at different time intervals without or with appropriate amounts of the compound that were mixed with 2 × 10^7 CFU/mL in sterile BHI broths and were incubated under shaking for 60 min at 37 °C. Samples were serially diluted into sterile BHI broths, streaked onto media agar plates, and incubated for 24 h at 37 °C. The antibacterial potency of tested compounds was expressed as the residual number of CFU with reference to the initial inoculums. […] Ampicillin (1 mg/mL) was used as a positive standard reference.

Data set [2] deals with Bacteroides fragilis (ATCC 25285). The data set is described as follows: Antibacterial activity, CFU viability. In kind it is cell-based. Conditions: ATCC25285, mean of two determinations, read-out: Mean IC50 ± SD. The protocol:
as §1

Data set [3] has as its system Escherichia coli (ATCC 25922). The data set is described as follows: Antibacterial activity, CFU viability. In kind it is cell-based. Conditions: ATCC25922, mean of two determinations, read-out: Mean IC50 ± SD. On the procedure:
as §1

Data set [4] deals with purified recombinant human LDHA protein (Homo sapiens, UniProt P00338). The data set is described as follows: Lactate dehydrogenase-A (LDHA) inhibition assay, NADH consumption. In kind it is biochemical. To be noted: for inhibition at 100 µg/mL: read-out: Mean Inhibition % at 100 µg/ml ± SD; for inhibition at 200 µg/mL: read-out: Mean Inhibition % at 200 µg/ml ± SD. The protocol:
LDHA inhibition activity was investigated by measuring the amounts of consumed NADH as described by Kim and his group. Briefly, different concentrations of each compound (50, 100, 200, and 300 µg) were incubated in buffer containing 20 mM of HEPES-K+ (pH 7.2), 20 μM of NADH, 2 mM of pyruvate, and 10 ng of purified recombinant human LDHA protein for 10 min. The fluorescence of NADH, which has an excitation wavelength of 340 nm and emission wavelength of 460 nm, was detected using a Spectrofluorometer.

Data set [5] is described as follows: In vitro cytotoxicity assay (LDH release). To be noted: human. In kind it is cell-based, human. The protocol: (§2) The best-in-class compounds, including (4c), (4d), (6a), (6b), (6d), (6e), and (6g), which were recognized as antimicrobial and enzymatic inhibitors, were further examined for their cytotoxic effects on LoVo and HCT-116 cells of human colon cancer. This was carried out by determining the residual percentages of viable cells after being treated with the compounds at different concentrations (50, 100, 200, and 400 µg/mL), using triton X-100 (at concentration of 0.1%) in the assay medium and the assay as the positive and negative controls, respectively.
(§3) Samples were diluted in Dulbecco’s modified Eagles medium, consisting of 10% fetal bovine serum, added to cells grown and cultured for 24 h in a 5% CO2-humidified incubator at 37 °C. Then, the activity of lactate dehydrogenase released from damaged cells was determined in the collected supernatant aliquots using an ELISA end-point assay (Benchmark Plus, Bio-Rad, CA, USA). The 0.1% Triton X-100 in the assay medium and the assay medium only were used as positive and negative controls, respectively. Cell viability, expressed as a relative percentage of the OD values (at 550 nm) for compound-treated cells (final concentration of 200 µg) and the control, is shown as mean ± SD (n = 2).
A general note: Release of lactate dehydrogenase indicates damage to the cell membrane.

Data set [6] has as its target T1, COX-2 (Homo sapiens, UniProt P35354).
T1 construct: purchased Cayman Chemical Company 701080
T1 sequence (P35354 18-604): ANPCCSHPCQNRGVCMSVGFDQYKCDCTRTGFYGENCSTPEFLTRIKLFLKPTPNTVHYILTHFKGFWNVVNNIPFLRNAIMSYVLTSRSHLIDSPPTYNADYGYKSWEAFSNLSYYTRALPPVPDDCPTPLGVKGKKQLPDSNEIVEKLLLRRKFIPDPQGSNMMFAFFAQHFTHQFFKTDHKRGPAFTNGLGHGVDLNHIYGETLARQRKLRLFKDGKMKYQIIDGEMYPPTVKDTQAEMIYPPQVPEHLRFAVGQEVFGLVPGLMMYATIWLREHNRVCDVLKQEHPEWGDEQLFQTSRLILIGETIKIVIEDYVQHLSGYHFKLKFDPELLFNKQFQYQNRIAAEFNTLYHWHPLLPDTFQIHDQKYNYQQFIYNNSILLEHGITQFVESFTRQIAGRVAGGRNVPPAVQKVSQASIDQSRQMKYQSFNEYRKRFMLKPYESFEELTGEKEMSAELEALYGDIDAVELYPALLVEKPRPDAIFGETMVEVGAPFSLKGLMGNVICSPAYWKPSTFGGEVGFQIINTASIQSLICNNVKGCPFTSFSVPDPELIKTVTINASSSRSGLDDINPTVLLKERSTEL
The data set is described as follows: Cyclooxygenase (COX-2) inhibition assay (Cayman kit 701080). In kind it is biochemical. Conditions: for inhibition at 100 µg/mL: read-out: Mean Inhibition % at 100 µg/ml ± SD; for inhibition at 200 µg/mL: read-out: Mean Inhibition % at 200 µg/ml ± SD. On the procedure:
The compounds were resuspended in 100% DMSO at a final concentration of 10 mg/mL. […] The inhibitory activity was expressed as the inhibition percentage, which was determined by comparison with a control experiment. IC50 values were deduced from the curves.

Data set [7] relates to LoVo cells. Description: In vitro cytotoxicity assay (LDH release). In kind it is cell-based, human. On the procedure:
as §2, §3

Data set [8] has as its system HCT-116 cells. The data set is described as follows: In vitro cytotoxicity assay (LDH release). In kind it is cell-based, human. The protocol:
as §2, §3

Where [9] appears, read: HCT-116 colon cancer cells, read-out: Mean % Cell Viability ± SD CRC-HCT-116 cells.
Where [10] appears, read: LoVo colon cancer cells, read-out: Mean % Cell Viability ± SD CRC-LoVo cells.

With `COc1cc2nc(C)n(N=Cc3ccc(C(=O)O)cc3)c(=O)c2cc1OC` [Compound 6b, 4-[(6,7-Dimethoxy-2-methyl-4-oxo-4H-quinazolin-3-ylimino)-methyl]-benzoic acid], the IC50 (as a rule, the concentration at which inhibition is half-maximal) stood at 12.7 µg/mL (≈ 34.4 µM) in data set [1], 10.3 ± 1.2 µg/mL (≈ 28.2 µM) in data set [2] and 18.2 ± 0.99 µg/mL (≈ 49.5 µM) in data set [3]. For the same compound, the results for the inhibition at 100 µg/mL in data set [4] (LDHA) and in data set [6] were 32 ± 2.55% and 37.1 ± 2.69%, respectively. Moreover, the inhibition at 200 µg/mL in data set [4] (LDHA) stood at 49.2%; in data set [6], 69 ± 2.76%. In addition, the viability (commonly a per cent measure of how many cells are alive, often set against a control) at 24 h, 200 µg/mL was found to be 47 ± 2.83% in data set [5] (setting [9]) and 54.2 ± 2.47% in data set [5] (setting [10]).
Take `COc1cc2nc(C)n(N=Cc3ccc(OCc4ccccc4)c(OC)c3)c(=O)c2cc1OC` [Compound 6d, 3-[(4-Benzyloxy-3-methoxy-benzylidene)-amino]-6,7-dimethoxy-2-methyl-3H-quinazolin-4-one]: the IC50 in data set [1] was 15.2 ± 0.919 µg/mL (≈ 33 µM); in data set [2], 9 ± 0.99 µg/mL (≈ 19.6 µM); in data set [3], 18.4 ± 1.27 µg/mL (≈ 40 µM); in data set [6], 215 µM. In addition, the “fold by which (6e) is more potent than the labelled compound (LDHA inhibition efficiency)” value in data set [4] (200 µg/mL, comparator 6e) was found to be 1.7 fold. The inhibition at 100 µg/mL in data set [4] (LDHA) was 31.2 ± 1.63%; in data set [6], 50.2%. In addition, the inhibition at 200 µg/mL in data set [4] (LDHA) amounted to 44.4 ± 3.39%; in data set [6] it was 97.5%. Besides, the viability at 24 h, 200 µg/mL was determined as 18.5% in data set [5] (setting [9]) and 26.8% in data set [5] (setting [10]). Further, the IC50 at 24 h in data set [5] (HCT-116 human colon cancer cells, HCT-116 cells) came to 100 µg/mL (≈ 218 µM); in data set [5] (LoVo human colon cancer cells, LoVo cells), 128 µg/mL (≈ 277 µM).
In the case of `COc1cc(C=Nn2c(C)nc3ccc(Cl)cc3c2=O)ccc1OCc1ccccc1` [Compound 6e, 3-[(4-Benzyloxy-3-methoxy-benzylidene)-amino]-6-chloro-2-methyl-3H-quinazolin-4-one], the IC50 was 12.4 µg/mL (≈ 28.6 µM) in data set [1], 12.8 ± 0.919 µg/mL (≈ 29.4 µM) in data set [2], 15.7 ± 0.919 µg/mL (≈ 36.1 µM) in data set [3] and 222 µM in data set [6]. The inhibition at 100 µg/mL in data set [4] (LDHA) came to 44.8 ± 2.9%; in data set [6], 57.9%. In addition, the inhibition at 200 µg/mL came out at 76.8% in data set [4] (LDHA) and 100% in data set [6]. Besides, the values for the viability at 24 h, 200 µg/mL in data set [5] (setting [9]) and in data set [5] (setting [10]) were 89 ± 2.83% and 93.4 ± 4.81%, respectively.
In the case of `CCc1ccc(C=Nn2c(C)nc3ccc(F)cc3c2=O)s1` [Compound 6g, 3-[(5-Ethyl-thiophen-2-ylmethylene)-amino]-6-fluoro-2-methyl-3H-quinazolin-4-one], the IC50 in data set [1] is 17.2 ± 1.77 µg/mL (≈ 54.7 µM); in data set [2] it was 19.9 ± 2.26 µg/mL (≈ 63.1 µM); in data set [3], 24.8 ± 1.77 µg/mL (≈ 78.5 µM); in data set [4] (LDHA), 334 µM. For the same compound, the figures for the inhibition at 100 µg/mL in data set [4] (LDHA) and in data set [6] were 53.6% and 28.8 ± 2.47%, respectively. For the same compound, the figures for the inhibition at 200 µg/mL in data set [4] (LDHA) and in data set [6] were 89.8% and 48.6 ± 3.75%, respectively. The viability at 24 h, 200 µg/mL stood at 86.5 ± 2.12% in data set [5] (setting [9]) and 88.2 ± 2.62% in data set [5] (setting [10]).
In the case of Triton X-100 [reference compound], the “Mean % Cell Viability, positive control” value in data set [7] and in data set [8] was 0.00% each time.
